The source of these data is PubChem BioAssay (NCI).

Holding throughout (test): growth of human tumour cells (NCI), 48 h
The test system of assay [1] is TK-10 renal.
Assay [2] relates to A549 NSCLC.
In assay [3] the test system is HOP-62 NSCLC.
For assay [4], the system named is MOLT-4 leukemia.
Assay [5] has as its system OVCAR-8 ovarian.
Assay [6] deals with NCI-H522 lung.
Assay [7] concerns HL-60(TB) leukemia.
Assay [8] relates to SW-620 colon.
The subject of assay [9] is A498 renal.
Assay [10] concerns NCI-H460 lung.
The test system of assay [11] is SF-268 CNS.
The subject of assay [12] is HT29 colon.
In assay [13] the test system is COLO 205 colon.
The subject of assay [14] is HOP-92 NSCLC.

The structures appear in SMILES notation.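 Method: 48-hour compound exposure of cells in 96-well plates, five concentrations, linear interpolation of endpoints. TGI denotes the concentration required for complete inhibition of growth.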 Some results are limits rather than exact numbers.

As for `CC(C)=CCOc1ccc(-c2coc3cc4c(c(O)c3c2=O)C=CC(C)(C)O4)cc1`, the TGI is > 100 µM in assay [1]; > 100 µM in assay [2]; > 100 µM in [3]; > 100 µM in assay [4]; > 100 µM in assay [5]; 38.9 µM in [6]. In addition, the TGI is > 100 µM in assay [7]; > 100 µM in [8]; 98.7 µM in assay [9]; > 100 µM in assay [10]; > 100 µM in assay [11]; > 100 µM in assay [12]. Besides, the TGI in [13] was > 100 µM.

Consider `CCOC(=O)c1ccn2c(c1)c(C#N)c1nc3ccccc3nc12`, for which the TGI in [1] was > 100 µM; in assay [2], > 100 µM; in assay [3], > 100 µM; in assay [4], 50.6 µM; in [5] it was > 100 µM; in assay [6], > 100 µM. Besides, the TGI in assay [7], in assay [8], in assay [9], in assay [10], in assay [11] and in assay [13] was > 100 µM throughout.

On to `CNC(=O)NCCN1N=C(C)/C(=C\c2ccccc2)CC1=O`, for which the TGI in [14], in assay [1], in assay [2], in assay [3], in [4] and in assay [5] was > 100 µM throughout. The TGI in assay [6], in assay [7], in assay [8], in [9], in [10] and in [11] was > 100 µM each time. In assay [12], the TGI is > 100 µM.

On to `CC(O)C1OC(n2ccc(=O)[nH]c2=O)CC1n1cncn1` (centres undefined), for which the TGI in assay [1], in assay [2], in [3], in assay [4], in assay [5] and in assay [6] was > 100 µM throughout. Moreover, the TGI in assay [7], in [8], in [9], in [10], in assay [11] and in [12] was > 100 µM in each case. For the same compound, in assay [13], the TGI was > 100 µM.

In the case of `CCOC(=O)CCn1cnc(N)n1`, the TGI in assay [14], in assay [1], in assay [2], in [3], in assay [4] and in assay [5] was > 100 µM each time. Also, the TGI in assay [6], in assay [7], in [8], in assay [10], in assay [12] and in assay [13] was > 100 µM each time.

Consider `CC(=O)OCC1OC(n2c(O)c(N=NC(N)=S)c3ccc([N+](=O)[O-])cc32)C(OC(C)=O)C1OC(C)=O` (centres undefined), for which the TGI is > 100 µM in [14]; > 100 µM in assay [1]; > 100 µM in assay [2]; > 100 µM in assay [3]; 54.9 µM in assay [4]; 43.1 µM in [5]. Besides, the TGI is 31.4 µM in assay [6]; 62.7 µM in assay [7]; > 100 µM in [8]; 66.2 µM in assay [10]; > 100 µM in assay [11]; 96.2 µM in [12]. Further, the TGI in assay [13] is > 100 µM.

`COC1(C)CNCC(C)(C)NC(=O)C(C)(OC)CNCC(C)(C)NC1=O` (centres undefined): the TGI in assay [14], in assay [1], in assay [2], in [3], in assay [4] and in [5] was > 100 µM throughout. Also, the TGI in assay [6], in assay [7], in assay [8], in assay [9], in assay [10] and in assay [11] was > 100 µM throughout. Moreover, the TGI in assay [12] and in assay [13] was > 100 µM throughout.

Take `CCOC(OC1=C(C#N)CCCC1)C(CC)[Se]c1ccccc1[N+](=O)[O-]` (centres undefined): the TGI in assay [14] was 40.6 µM; in assay [1], > 100 µM; in assay [2] it was > 100 µM; in [3], 88.8 µM; in assay [4], 71.2 µM; in [5], 48.7 µM. Besides, the TGI in [6] was 30.9 µM; in [7] it was 46.1 µM; in assay [9], > 100 µM; in assay [10], > 100 µM; in [11], 43.6 µM; in assay [12], 31.4 µM. Further, the TGI in [13] was > 100 µM.

For the compound `C=CCC1C(=O)CC2(C)C(CC=C)C(=O)CC12C` (centres undefined), the TGI in [14], in assay [1], in assay [2], in [3], in assay [4] and in [5] was > 100 µM each time. The TGI in [6], in assay [7], in assay [8], in [10], in assay [12] and in assay [13] was > 100 µM each time.

As for `COC(=O)/C(=N\N)C(C(=O)C(=O)Nc1nc(=S)[nH][nH]1)c1nc2ccc([N+](=O)[O-])cc2[nH]c1=O` (centres undefined), the TGI in assay [14], in [1], in [2], in [3], in assay [4] and in assay [5] was > 100 µM throughout. Further, the TGI in assay [6], in assay [7], in assay [8], in assay [9], in [10] and in assay [11] was > 100 µM throughout. Also, the TGI in assay [12] and in assay [13] was > 100 µM each time.
